Data from paper PMC5845645, “QSAR-Driven Design and Discovery of Novel Compounds With Antiplasmodial and Transmission Blocking Activities” (Frontiers in Pharmacology, 2018).
Read-outs that look alike come from different tables or passages of the source. One block for each compound: values may come before it.

Key:
PfdUTPase = target: PfdUTPase; parameters: method as in earlier work; settings: pKi = -logKi of literature Ki, ref Nguyen et al., 2005, 2006, Whittingham et al., McCarthy et al., 2009, Baragaña et al., 2011, Hampton et al., Ruda et al.; cited from earlier work
[1] = Cytotoxicity assay (MTT reduction); type: cell-based, monkey; settings: monkey; COS7 cells, 72 h
Procedure: (§1) Cytotoxicity assays used COS7 cells (fibroblast-like cell lines derived from monkey kidney tissue), grown in DMEM medium supplemented with 10% fetal bovine serum and 0.05 mg/mL gentamicin in atmosphere containing 5% CO2 at 37°C. Drug cytotoxicity in COS7 cells was determined in duplicate, using 12 point of concentration, prepared in two-fold dilution (200 μM – ∼ 0.097 μM). After the incubation period (72 h), the cell viability analysis were done by the MMT reduction method (3-[4,5-dimethyl-thiazol-2-yl]-2,5-diphenyltetrazolium […] ([Mosmann, 1983]). The optical density was determined at 570 nm (CLARIOstar, Labtech BMG) and the 50% cytotoxicity concentrations (CC50) was expressed as the percent viability relative to the control. The selectivity index of the compounds was determined by the following expression:
(§2) Where COS7 CC50 corresponds to the 50% cytotoxic concentration on COS7 cells and Pf IC50 is the 50 % inhibitory concentration on P. falciparum (3D7).

COS7 cells = assay: Cytotoxicity assay (MTT reduction); type: cell-based, monkey; settings: selectivity index = COS7 CC50 / Pf IC50 (3D7)
Procedure: as §1, §2

P. berghei ANKA = assay: Ookinete assay (gametocyte to ookinete conversion); type: cell-based; settings: Plasmodium berghei, 24 h, 21°C, ookinete formation relative to DMSO control
Procedure: All animal procedures were carried out in accordance to the Brazilian College of Animal Experimentation (COBEA). This research protocol was approved by the Ethics Committee of the Institute of Biomedical Sciences – University of Sao Paulo, protocol number 132/2014-CEUA. C57BL/6 mice received an intraperitoneal injection of P. berghei ANKA infected erythrocytes, and four days after infection, a mouse with parasitemia between 4 and 6% and gametocytemia > 0.4% was selected as blood donor for cardiac puncture. Four microliters of the infected blood was dispensed in 80 μl of ookinete medium ([Blagborough et al., 2012]) at 21°C with DMSO control or with 10 μM of the tested compounds. The assay was incubated at 21°C for 24 h and 2 μl of the blood at the bottom of the tubes was spread onto a glass slide, stained with Giemsa and analyzed under a direct light microscope. The total number of formed ookinetes were counted in each slide (triplicate for each condition), and inhibition was calculated in relation to the total ookinetes formed in the control condition.

[2] = parameters: method as in Hit2Lead library; settings: calculated; ref Hit2Lead library; cited from earlier work
P. falciparum 3D7 = assay: Growth inhibition by SYBR Green I, chloroquine-sensitive strain; type: cell-based; settings: Plasmodium falciparum, read-out: IC50 3D7
Procedure: (§3) Chloroquine-sensitive (3D7) and multidrug-resistant (W2) strains were cultured in RPMI 1640 medium supplemented with 0.05 mg/mL gentamycin, 38.4 mM HEPES, 0.2% sodium bicarbonate, and 10% O^+ human serum, as previously described in a standardized protocol ([Trager and Jensen, 1976]). Then, erythrocytes were added to the culture to obtain a 5% hematocrit, and incubated at 37°C under 5% CO2 atmosphere, with daily exchange of medium. The parasitemia was monitored daily in smears stained with Giemsa. Synchronic cultures in the ring stage were obtained by two consecutive treatments at 48 h intervals with a 5% solution of D-sorbitol ([Lambros and Vanderberg, 1979]).
(§4) Parasites synchronized at the ring stage, with 0.5% parasitemia and 2% hematocrit were distributed in each well, separately. The compounds were tested in triplicates, using 12 point of concentration, prepared in two-fold dilution (40 μM – ∼0.019 μM) over 72 h. Chloroquine and pyrimethamine were used as control. Subsequently, the in vitro susceptibility of parasite to tested drugs was measured by SYBR Green according to [Hartwig et al. (2013)]. Briefly, 100 μL of lysis buffer (20 mM Tris, 5 mM EDTA, 0.008% wt/vol saponin, 0.08% vol/vol Triton X-100, and 0.4 μL/mL of SYBR Green) were added in each well of a new black 96-well plate and 100 μL of parasite culture incubated with drugs were added. After homogenization, the plates were incubated for 1 h in the dark. Fluorescence was measured at 490 nm excitation and 540 nm emission (CLARIOstar, Labtech BMG). The IC50 was calculated by plotting the Log doses vs. Inhibition (expressed as a percentage relative to the control) in Prism 6 (GraphPad Software Inc.).

P. falciparum W2 = assay: Growth inhibition by SYBR Green I, multidrug-resistant strain; type: cell-based; settings: Plasmodium falciparum, read-out: IC50 W2
Procedure: as §3, §4

[3] = asexual blood stage, chloroquine-sensitive 3D7, 72 h
[4] = asexual blood stage, multidrug-resistant W2, 72 h

SMILES: O=c1ccn([C@H]2C[C@H](O)[C@@H](CNC(c3ccccc3)c3ccccc3)O2)c(=O)[nH]1 [Compound 3, 2′,5′-dideoxy-5′-[(diphenylmethyl)amino]uridine]
PfdUTPase inhibition (pKi) (PfdUTPase): 6.70

SMILES: COc1ccc2c(c1)c(/C=C/c1nc3ccccc3c(=O)n1-c1ccccc1)c(C)n2C [LabMol-145]
CC50 at 72 h [1]: 46 ± 13.4 µM
SI (COS7 cells): 2.7
inhibition at 10 µM (P. berghei ANKA): 13.2 ± 24%
logS [2]: −6.74
IC50 (P. falciparum 3D7; [3]): 17.1 ± 16.2 µM
IC50 (P. falciparum W2; [4]): 15.3 ± 3.29 µM

SMILES: N#Cc1ccc(C(OCC2OC(n3ccc(=O)[nH]c3=O)CC2O)(c2ccccc2)c2ccccc2)cc1 (stereo not drawn) [Compound 20]
PfdUTPase inhibition (pKi) (PfdUTPase): 6.03

SMILES: CC(C)(C)[Si](C)(C)OC1CC(n2ccc(=O)[nH]c2=O)OC1CO (stereo not drawn) [Compound 127]
PfdUTPase inhibition (pKi) (PfdUTPase): 3.19

SMILES: O=C(O)CCCNC(=O)C(CCOC(c1ccccc1)(c1ccccc1)c1ccccc1)Cn1ccc(=O)[nH]c1=O (stereo not drawn) [Compound 4]
PfdUTPase inhibition (pKi) (PfdUTPase): 6.70

SMILES: CC(C)(C)[Si](C)(C)OC1CC(n2ccc(=O)[nH]c2=O)OC1CNP(=O)(Oc1ccccc1)Oc1ccccc1 (stereo not drawn) [Compound 87]
PfdUTPase inhibition (pKi) (PfdUTPase): 4.17

IC50 (P. falciparum 3D7; [3]): 6.1 ± 1.95 µM
IC50 (P. falciparum W2; [4]): 3.2 ± 2.12 µM
SMILES: COc1ccc(C(OCC2OC(n3ccc(=O)[nH]c3=O)C(O)C2O)(c2ccccc2)c2ccccc2)cc1 (stereo not drawn) [LabMol-146]
CC50 at 72 h [1]: 52 ± 16.4 µM
inhibition at 10 µM (P. berghei ANKA): 7.3 ± 7.3%
logS [2]: −5.04

IC50 (P. falciparum 3D7; [3]): 0.044 ± 0.009 µM
IC50 (P. falciparum W2; [4]): 14.7 ± 3.94 µM
SMILES: CCc1nc(N)nc(N)c1-c1ccc(Cl)cc1 [Pyrimethamine, reference compound]

SMILES: COc1ccc(C(OCC2OC3C(Oc4nc(=O)ccn43)C2O)(c2ccccc2)c2ccc(OC)cc2)cc1 (stereo not drawn) [LabMol-144]
CC50 at 72 h [1]: 81.7 ± 25.7 µM
SI (COS7 cells): 11.7
inhibition at 10 µM (P. berghei ANKA): 44.6 ± 2.4%
logS [2]: −5.36
IC50 (P. falciparum 3D7; [3]): 7.1 ± 2.53 µM
IC50 (P. falciparum W2; [4]): 4.23 ± 1.18 µM

SMILES: CCN(CC)CCCC(C)Nc1ccnc2cc(Cl)ccc12 (stereo not drawn) [Chloroquine, reference compound]
IC50 (P. falciparum 3D7; 3D7, 72 h): 0.011 ± 0.0006 µM
IC50 (P. falciparum W2; W2, 72 h): 0.181 ± 0.027 µM

SMILES: O=c1ccn(C2CC(O)C(CNC(c3ccccc3)(c3ccccc3)c3ccccc3)O2)c(=O)[nH]1 (stereo not drawn) [Compound 1]
PfdUTPase inhibition (pKi) (PfdUTPase): 6.70
